Experimental data as given in US20240131032A1, “AN ACTIVITY-GUIDED MAP OF ELECTROPHILE-CYSTEINE INTERACTIONS IN PRIMARY HUMAN IMMUNE CELLS” (The Scripps Research Institute, priority 2019, published 2024).
Residues, ends and D or L forms follow the SMILES beside them. *: point of attachment. Cbz = O=C(OCc1ccccc1)*

What was measured:
BIRC3 = target: T1, BIRC3 (Homo sapiens, UniProt Q13489); test: Western blot of BIRC3 content in human T cells; assay type: cell-based; conditions: MG132 10 μM with EV-3, 24 h
T1 construct: endogenous in cells; host or cells: primary human T cells

ITK = target: T2, ITK (Homo sapiens, UniProt Q08881); test: Western blot of ITK protein content in T cells; assay type: cell-based; conditions: MG132 10 μM
T2 construct: endogenous in cells; host or cells: primary human T cells (αCD3/CD28-stimulated, naïve or expanded)
T2 sequence (Q08881 1-620): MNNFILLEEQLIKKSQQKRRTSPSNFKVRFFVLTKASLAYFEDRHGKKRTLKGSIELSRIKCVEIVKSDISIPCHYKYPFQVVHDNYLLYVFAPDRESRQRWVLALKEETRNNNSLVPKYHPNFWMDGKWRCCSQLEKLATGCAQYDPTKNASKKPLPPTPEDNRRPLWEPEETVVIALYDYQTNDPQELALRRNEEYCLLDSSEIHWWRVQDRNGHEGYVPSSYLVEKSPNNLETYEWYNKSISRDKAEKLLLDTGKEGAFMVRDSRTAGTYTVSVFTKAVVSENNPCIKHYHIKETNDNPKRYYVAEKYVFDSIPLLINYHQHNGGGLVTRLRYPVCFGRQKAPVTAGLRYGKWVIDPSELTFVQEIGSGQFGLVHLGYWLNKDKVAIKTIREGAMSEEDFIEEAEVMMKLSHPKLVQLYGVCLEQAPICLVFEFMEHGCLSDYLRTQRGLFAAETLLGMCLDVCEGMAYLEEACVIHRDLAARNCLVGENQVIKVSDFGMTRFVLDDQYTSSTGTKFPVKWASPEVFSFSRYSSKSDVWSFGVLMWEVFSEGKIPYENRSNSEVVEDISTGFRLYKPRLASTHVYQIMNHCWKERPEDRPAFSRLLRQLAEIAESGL
Procedure: T cells were treated with DMSO or compounds (5 μM each) for 8 h. […] (F) Quantitation of western blot data, where protein band intensity calculations were made using ImageJ software and represent the mean percentage of DMSO-treated control±SD; n=2-5 independent experiments per group. **p<0.01 by two-tailed unpaired t test with Welch's correction compared to EV-97 treatment. […] Data are presented as the mean percentage of DMSO-treated control±SEM; n=4 independent experiments per group. ****p<0.0001 by two-tailed unpaired t test with Welch's correction compared to DMSO-treated stim control.
Results are from one experiment representative of 2-5 independent experiments. […] Cells were treated with compounds (5 μM each) or DMSO control for 8 h. Protein band intensity calculations were made using ImageJ software and represent the mean percentage of DMSO-treated control±SD; n=2-5 independent experiments per group. **p<0.01 by two-tailed unpaired t test with Welch's correction compared to DMSO-treated stim control. […] Cells treated with DMSO or EV-96 (5 μM) for 1-8 h. Results are from a single experiment representative of 2-4 independent experiments. […] Cells were treated with compounds (5 μM each) or DMSO for 8 h. Results are from one experiment representative of 2 independent experiments.

NuRD complex = test: Expression-based proteomics (TMT-exp) of compound-treated T cells, NuRD complex; assay type: cell-based, human; conditions: MG132 10 μM co-treatment, 24 h
Procedure: FIG. 7B is a scatter plot representation of protein abundance changes caused by BPK-25 (10 μM, 24 h) in two independent replicate experiments, with decreases in NuRD complex components highlighted in red. FIG. 7C is a heatmap of top proteins with decreased abundance in BPK-25-treated T cells showing that the subset of these proteins in the NuRD complex (asterisks) were largely unaltered by other active compounds and blocked in their degradation by co-treatment with the proteasome inhibitor MG132. […] FIG. 7E is a bar graph […] showing time-dependent reductions in NuRD complex members in human T cells treated with BPK-25 (10 μM). Left, representative western blots. Right, quantification of changes in protein. […] FIG. 7G is a heat map showing the changes in cysteine reactivity for NuRD complex members in human T cells treated with BPK-25 and other active compounds.
Freshly isolated T cells (1.6×10^7 cells, 2×10^6 cells/mL in RPMI media) were treated with compound or DMSO for 24 h, pelleted (600 g, 5 min), and washed with PBS (1×10 mL). The cells were then transferred to an Eppendorf tube in additional PBS (1 mL), pelleted (600 g, 5 min), flash frozen, and kept at −80° C. until further analysis. On the first day of the whole proteome TMT protocol, the cells were thawed on ice and lysed in lysis buffer (150 μL, 1 tablet of Roche complete, mini, EDTA-free Protease Inhibitor Cocktail dissolved in 10 mL of PBS) using a probe sonicator (2×8 pulses). Protein concentration was adjusted to 2.0 mg/mL and the samples (100 μL) were transferred to new Eppendorf tubes (1.5 mL) containing urea (48 mg/tube, final urea concentration: 8 M). DTT (5 μL, 200 mM fresh stock in H2O, final DTT concentration: 10 mM) was then added to the tubes and the samples were incubated at 65° C. for 15 min. Following this incubation, iodoacetamide (5 μL, 400 mM fresh stock in H2O, final IA concentration: 20 mM) was added and the samples were incubated in the dark at 37° C. with shaking for 30 min. Ice-cold MeOH (600 μL), CHCl3 (200 μL), and H2O (500 μL) were then added, the mixture was vortexed and centrifuged (10,000 g, 10 min, 4° C.) to afford a protein disc at the interface of CHCl3 and aqueous layers. The top layer was aspirated without perturbing the disk, additional MeOH (600 μL) was added and the proteins were pelleted (10,000 g, 10 min, 4° C.) and used in the next step or stored at −80° C. overnight.
The resulting protein pellets were resuspended in EPPS buffer (160 μL, 200 mM, pH 8) using a probe sonicator (2×6 pulses). […]
The sample became clear after the overnight digestion. At this point, peptide concentration was determined using microBCA assay (Thermo Scientific) according to manufacturer's instructions. […]

BIRC2 = BIRC2 (Homo sapiens, UniProt Q13490); test: Western blot of BIRC2 content in human T cells; conditions: MG132 10 μM with EV-3, 24 h
Procedure: All treatments were for 24 h.
All treatments were for 24 h. […] Plasmids expressing FLAG epitope-tagged versions of wild-type (WT) or the indicated cysteine-to-alanine mutants of BIRC2 (C45A) and BIRC3 (C28A) were co-transfected into primary human T cells with mCherry-expressing plasmid to control for transfection efficiency for 24 h. Cells were then treated with DMSO, EV-3 (10 μM), or AT-406 (1 μM) for 24 h and analyzed by anti-FLAG western blotting. […] (G) Quantitation of western blot data, where protein band intensity calculations were made using ImageJ software and represent the mean percentage of DMSO treated control±SEM; n=3 independent experiments per group. *p<0.05; **p<0.01 by two-tailed unpaired t test with Welch's correction compared to respective DMSO treatments.
Western blot analysis was performed on freshly isolated or expanded T cells. For Western blot protein degradation analysis, primary human T cells (2×10^7 cells/treatment) were re-suspended in RPMI media at 2×10^6 cells/mL and treated with the compounds or DMSO at 37° C. in a CO2 containing incubator for 24 h (or otherwise indicated times).

ERCC3 = target: T3, ERCC3 (Homo sapiens, UniProt P19447); test: isoTOP-ABPP and TMT-ABPP cysteine engagement, ERCC3; assay type: binding
T3 construct: endogenous in cells; host or cells: primary human T cells
T3 sequence (P19447 1-782): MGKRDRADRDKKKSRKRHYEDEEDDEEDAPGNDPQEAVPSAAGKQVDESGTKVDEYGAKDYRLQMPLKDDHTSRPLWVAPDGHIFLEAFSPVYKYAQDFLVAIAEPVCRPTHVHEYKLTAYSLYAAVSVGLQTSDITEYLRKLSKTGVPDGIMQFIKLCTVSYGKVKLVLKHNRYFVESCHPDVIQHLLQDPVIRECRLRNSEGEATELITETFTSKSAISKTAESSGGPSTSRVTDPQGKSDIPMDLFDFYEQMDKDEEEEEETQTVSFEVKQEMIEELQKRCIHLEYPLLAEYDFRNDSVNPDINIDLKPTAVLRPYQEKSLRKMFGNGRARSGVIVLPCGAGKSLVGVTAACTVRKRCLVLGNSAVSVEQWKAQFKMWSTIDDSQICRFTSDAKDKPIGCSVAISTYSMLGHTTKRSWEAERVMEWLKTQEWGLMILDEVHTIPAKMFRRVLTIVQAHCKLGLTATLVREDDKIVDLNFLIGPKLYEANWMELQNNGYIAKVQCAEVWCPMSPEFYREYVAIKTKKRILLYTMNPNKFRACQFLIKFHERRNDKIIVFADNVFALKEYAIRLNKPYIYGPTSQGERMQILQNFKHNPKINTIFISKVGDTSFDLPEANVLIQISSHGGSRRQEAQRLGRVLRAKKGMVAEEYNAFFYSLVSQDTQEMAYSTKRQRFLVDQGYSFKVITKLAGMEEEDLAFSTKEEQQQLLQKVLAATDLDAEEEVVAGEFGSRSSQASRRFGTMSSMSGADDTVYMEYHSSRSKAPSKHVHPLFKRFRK
Procedure: Activated or expanded T cells were re-suspended in RPMI media supplemented with 10% FBS, L-glutamine (2 mM), penicillin (100 U/mL), and streptomycin (100 μg/mL) at 2×10^6 cells/mL. The compounds were added to cells as 1000×DMSO stocks and mixed well with the media by pipetting up and down after addition. The cells were kept at 37° C. in 5% CO2 containing incubators for 3 h (or otherwise specified times), then pelleted by centrifugation (524 g, 5 min, 4° C.), washed with cold PBS (10 mL) and transferred to Eppendorf tubes (1 mL PBS). The cells were pelleted again (524 g, 5 min, 4° C.), flash-frozen, and kept at −80° C. until further analysis.
Activated or expanded primary human T cells were re-suspended in RPMI (1×10^6 cells/mL) containing 10% fetal bovine serum (FBS), penicillin (100 U/mL), streptomycin ([…]), and L-glutamine (2 mM). The cells were treated with DMSO or compounds for 3 h, pelleted (524 g, 5 min), washed with PBS, and lysed by sonication (2×8 pulses). Soluble and particulate proteomic fractions were separated by ultracentrifugation (100,000 g, 45 min), and protein concentration was normalized to 1.7 mg/mL using a standard DC protein assay (Bio-Rad). The resulting proteomes were analyzed by competitive isotopic Tandem Orthogonal Proteolysis Activity-Based Protein Profiling (isoTOP-ABPP).
Samples (500 μL, 1.7 mg/mL) were treated with iodoacetamide alkyne (IA-alkyne, 5 μL of 10 mM stock in DMSO, final concentration: 100 μM) for 1 h at ambient temperature. Modified proteins were then conjugated to isotopically labeled, TEV-cleavable biotin tags (TEV-tags) using copper-catalyzed azide-alkyne cycloaddition reaction (CuAAC). Reagents for the CuAAC reaction were pre-mixed prior to their addition to the proteome samples. […]
The heavy/light isoTOP-ABPP ratios (R values) for each unique peptide (DMSO/compound treated) were quantified with in-house CIMAGE software (Weerapana et al., 2010) using default parameters (3 MS1 acquisitions per peak and signal to noise threshold set to 2.5). Site-specific engagement of cysteine residues was assessed by blockade of IA-alkyne probe labeling. […] Ratios for unique peptide sequences were calculated for each experiment; overlapping peptides with the same modified cysteine (e.g., different charge states, elution times or tryptic termini) were grouped together and the median ratio was reported as the final ratio (R). […]

NF-κB = conditions: cited from earlier work
primary human T cells = conditions: cited from earlier work

BIRC2, sequence (Q13490 whole entry): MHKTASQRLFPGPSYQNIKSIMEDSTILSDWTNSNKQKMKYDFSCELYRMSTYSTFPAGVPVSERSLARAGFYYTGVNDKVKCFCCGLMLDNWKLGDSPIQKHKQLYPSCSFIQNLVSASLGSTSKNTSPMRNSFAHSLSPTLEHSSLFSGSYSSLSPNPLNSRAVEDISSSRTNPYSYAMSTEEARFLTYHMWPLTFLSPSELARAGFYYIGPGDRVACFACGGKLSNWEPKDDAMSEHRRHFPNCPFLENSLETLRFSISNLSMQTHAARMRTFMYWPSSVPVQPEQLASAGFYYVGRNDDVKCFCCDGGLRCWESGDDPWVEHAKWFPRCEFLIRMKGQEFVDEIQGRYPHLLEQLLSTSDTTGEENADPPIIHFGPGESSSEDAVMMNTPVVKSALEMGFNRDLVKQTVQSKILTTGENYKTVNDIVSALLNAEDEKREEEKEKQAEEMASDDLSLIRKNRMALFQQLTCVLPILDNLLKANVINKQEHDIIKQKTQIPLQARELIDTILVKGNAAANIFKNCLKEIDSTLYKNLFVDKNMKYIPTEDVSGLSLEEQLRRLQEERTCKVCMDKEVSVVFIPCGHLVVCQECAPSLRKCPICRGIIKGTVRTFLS
T1 sequence (Q13489 whole entry): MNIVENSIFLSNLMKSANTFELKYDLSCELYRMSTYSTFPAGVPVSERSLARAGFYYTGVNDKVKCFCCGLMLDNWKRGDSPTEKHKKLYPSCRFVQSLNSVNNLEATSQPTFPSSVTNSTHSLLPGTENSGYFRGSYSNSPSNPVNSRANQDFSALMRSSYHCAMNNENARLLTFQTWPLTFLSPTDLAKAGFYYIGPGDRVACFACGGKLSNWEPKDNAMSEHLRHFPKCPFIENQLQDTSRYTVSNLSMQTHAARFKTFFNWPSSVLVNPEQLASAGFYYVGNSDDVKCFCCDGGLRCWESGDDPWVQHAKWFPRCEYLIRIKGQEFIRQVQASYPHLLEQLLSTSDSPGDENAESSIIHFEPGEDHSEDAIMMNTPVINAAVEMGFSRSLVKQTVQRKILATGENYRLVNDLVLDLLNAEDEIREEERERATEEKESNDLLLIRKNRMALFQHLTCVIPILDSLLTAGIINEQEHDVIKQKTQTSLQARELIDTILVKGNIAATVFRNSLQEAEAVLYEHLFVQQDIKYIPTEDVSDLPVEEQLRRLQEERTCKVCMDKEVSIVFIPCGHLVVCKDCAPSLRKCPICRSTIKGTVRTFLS

With CC(C)C[C@@H](C=O)NC(=O)[C@H](CC(C)C)NC(=O)[C@H](CC(C)C)NC(=O)OCc1ccccc1 [MG132, reference compound] (Cbz-Leu-Leu-Leu-aldehyde) the “effect on EV-3-induced loss of BIRC3” value (BIRC3) was “blocks”, the “effect on EV-96-mediated loss of ITK (co-treatment)” value (ITK) was “blocked” and the “effect on BPK-25-mediated reductions in NuRD complex proteins” value (NuRD complex) was “blocked”. For the same compound, the “effect on EV-3-induced loss of BIRC2” value (BIRC2) was “blocks”.

For CC(C)[C@]12O[C@H]1[C@@H]1O[C@]13[C@]1(O[C@H]1C[C@H]1C4=C(CC[C@@]13C)C(=O)OC4)[C@@H]2O [triptolide], the “engagement of C342 of ERCC3” value (ERCC3) is listed as “also targeted”, the “NF-κB DNA binding activity (has been shown)” value (NF-κB) is listed as “without blocking” and the “effect on T cell activation (has been shown)” value (primary human T cells) is listed as “impair T cell activation”.
